Measured values from ChEMBL document CHEMBL3351927, “Pyrrole alkaloids from the fruits of Morus alba” (Bioorg Med Chem Lett, 2014).

Target: T1, Pancreatic triacylglycerol lipase (Sus scrofa) (UniProt P00591)
T1 sequence (whole entry): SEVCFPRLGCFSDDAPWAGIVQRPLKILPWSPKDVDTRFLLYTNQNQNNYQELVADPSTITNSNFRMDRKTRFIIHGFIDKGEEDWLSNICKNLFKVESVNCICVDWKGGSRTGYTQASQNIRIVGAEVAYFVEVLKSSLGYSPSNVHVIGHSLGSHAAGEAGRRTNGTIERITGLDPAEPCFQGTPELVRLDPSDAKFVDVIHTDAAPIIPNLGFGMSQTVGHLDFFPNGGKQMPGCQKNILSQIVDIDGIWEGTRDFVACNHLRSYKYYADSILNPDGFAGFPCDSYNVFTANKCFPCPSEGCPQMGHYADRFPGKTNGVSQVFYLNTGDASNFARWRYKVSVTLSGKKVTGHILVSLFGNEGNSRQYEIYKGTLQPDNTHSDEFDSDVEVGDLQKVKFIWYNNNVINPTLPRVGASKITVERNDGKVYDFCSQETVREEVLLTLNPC
Assay: Inhibition of porcine pancreatic lipase assessed as p-NPB substrate hydrolysis at 100 uM after 15 mins by microplate reader

| inhibition | Structure (SMILES) |
| --- | --- |
| 40% | COCc1ccc(C=O)n1C(C)C(=O)OC (configuration not stated) |
| 70% | O=Cc1ccc2n1C(Cc1ccc(O)cc1)C(=O)OC2 (configuration not stated) |
